Assays:
[1] = tested on: rat model of MI/AR injury (myocardial ischemia-reperfusion injury); test: Rat model of MI/AR injury (LCA ligation, myocardial ischemia-reperfusion); assay type: in vivo; conditions: for MI/AR Reduction (%): male Sprague-Dawley rats, compound given 15 minutes prior to ligation, intravenous, doses ranged 1-20 mg/kg, 24 hours after reperfusion, relative to vehicle controls; for Reduction in Cardiac injury: LCA rat model, procedure of Example 2
Description: A rat model of MI/AR injury was used as an in vivo screen to determine if the compounds of Tables 1-5 were cardio-protective (e.g., against myocardial ischemia-reperfusion injury). This model is analogous to the ischemia-reperfusion injury observed in cardiac patients following coronary occlusions and cardiac surgery procedures, such as coronary artery bypass grafting (CABG) (Matsui, T., Tao, J., del Monte, F., Lee, K.-H. et al., Akt Activation Preserves Cardiac Function and Prevents Injury After Transient Cardiac Ischemia In vivo, Circulation 2001, 104:330, the teachings of which are incorporated herein by reference in their entirety).
The circumflex branch of the left coronary artery (LCA) was ligated temporarily to induce regional ischemia in the left ventricular mass, followed by the injection of fluorescent microspheres to delineate the ischemic region. 15 minutes prior to ligation (pre-occlusion, pre-ischemic episode), a compound from Tables 1-5 was administered to the animals. Doses of the compounds listed in Tables 1-5 ranged from 1-20 mg/kg. The animals were sacrificed about 24 hours after reperfusion and the hearts were excised, sectioned and stained with triphenyltetrazolium. The direct impact of the pharmacologic intervention was determined by measuring the myocardial infarct area (MI), the ischemic area at risk (AR) and the left ventricular area (LV). The reduction of MI over the AR (MI/AR ratio) was used as the primary measure of drug efficacy relative to vehicle controls.
Male Sprague-Dawley rats between 300 and 350 g were used for these experiments. Anesthesia was induced with 3-4% isoflurane in an induction chamber. After induction, anesthesia was maintained at a surgical plane with 1.5-2.0% isoflurane, administered by a Rodent Ventilator through a 16-gauge angiocatheter introduced orally into the trachea. The ventilator was set at 2.5 cc at a rate of 60-65 breaths per minute to maintain ventilation during surgery. The core temperature of the animal was monitored and maintained at 37° C. using a rectal probe and a heating lamp attached to a temperature controller.
A left anterior thoracotomy was performed and the heart was exposed using a vertical pericardotomy. The circumflex branch of the left coronary artery (LCx) was ligated approximately 4 mm from the aorta using a cardiovascular 7.0 monofilament suture on an 11 mm needle to induce ischemia in the left ventricle.
Fluorescent microspheres (300 μL) were injected into the left ventricular cavity 10-20 minutes after the ligation to delineate the ischemic area. The suture was removed 30 minutes after ligation to reperfuse the ischemic area and the ischemic area was checked for reperfusion.
The chest was then closed in layers using absorbable suture (Dexon 5-0) for the muscle layers and monofilament Nylon 5-0 suture was used to close the cutaneous layer. The animals were allowed to recover, then were returned to the colony.
Twenty-four hours after reperfusion, anesthesia was induced using ketamine hydrochloride and the chest was opened. The animals were sacrificed with 15% potassium chloride aqueous solution (w/v) injected into the LV cavity to arrest the heart in diastole. The heart was excised distal to the aortic valve and washed with saline to remove the blood. Sagittal slices of the heart were obtained between the base of the ventricle and the apex. Five slices of heart tissue were obtained, each 2 mm thick. The slices were immersed in a 1% 2,3,5-triphenyl-2H-tetrazolium chloride (TTC) in saline solution and then stored in the dark for 30 minutes to stain.
Images of the slices were obtained under bright field (to observe the TTC staining) and under fluorescence (to observe the microspheres). The area at risk was determined by the absence of microspheres and the infarct area was determined by the absence of TTC staining.

[2] = tested on: PAC rat model of ischemia-induced renal injury; test: Partial aortic clamping (PAC) rat model of ischemia-induced renal injury; assay type: in vivo; conditions: for Reduction of SCr vs. control: serum creatinine 24 hours post-surgery; for serum creatinine concentrations relative to the control animals (in words): administered intravenously
Description: A partial aortic clamping (PAC) rat model of ischemia-induced renal injury was used as an in vivo screen to determine if RLip-EA-OH (Entry 1), RLip-Cya-OH (Entry 10), RLip-Tau (Entry 13), and RLip-aminoethylphosphonic acid (Entry 15) were renal-protective (e.g., against renal ischemia-reperfusion injury). This model simulates ischemia-reperfusion injury observed in renal patients following ischemia-induced renal failure (Molitoris, B. A., Dagher, P. C., Sandoval, R. M., Campos, S. B., Ashush, H., Fridman, E., Brafman, A. Faerman, A., Atkinson, S. J., Thompson, J. D., Kalinski, H., Skaliter, R., Erlich, S., Feinstein, E. “siRNA Targeted to p53 Attenuates Ischemic and Cisplatin-Induced Acute Kidney Injury.” J Am Soc Nephrol, 2009, vol. 20, 1754-1764, the teachings of which are incorporated herein by reference to their entirety). Serum creatinine concentrations (SCr) typically rise due to renal ischemia and effective treatment should show a reduction in serum creatinine concentrations.
The abdominal aorta just below the renal arteries was isolated and temporarily ligated to induce regional ischemia using an aortic clamp. An initial blood sample was drawn at study initiation for baseline creatinine measurement and at 24 hours post-surgery for functional evaluation of the severity of kidney injury. The animals were sacrificed about 24 hours after reperfusion.
Male Sprague-Dawley rats between 200 to 250 g were used for these experiments. Anesthesia was induced with 5% halothane and maintained with 1-1.5% halothane in oxygen-enriched air via a face mask. The rats were maintained on a warming blanket throughout the procedure to maintain body temperature at 37° C. After shaving the abdomen of the rat, a midline incision was made through the skin and musculature to expose the abdominal cavity to quantify the aortic blood flow (ABF).
Aortic clamps comprised of two 4-mm in length polyethylene tubes (PE-100, 0.86-mm diameter) were then placed around the aorta to induce renal ischemia. One clamp was placed around the aorta and the other was placed to exert variable tension via a 10-in. 3.0 silk suture. The silk thread was then tied and the tension on the two ends of the thread increased until there was a 90% reduction of initial (ABF) rate measured on the ultrasonic probe reader. A 10% baseline blood flow was maintained for a period of 30 minutes.
RLip-EA-OH (Entry 1) at 10 mg/kg; RLip-Cya-OH (Entry 10) at 3 mg/kg; RLip-Tau (Entry 13) at 3 mg/kg; and RLip-aminoethylphosphonic acid at 10 mg/kg, 3 mg/kg, and 1 mg/kg were administered intravenously via the femoral vein as a bolus dose 15 minutes prior to ischemia. A 0.15-mL venous blood sample was drawn at study initiation for baseline creatinine measurement and at 24 hours postsurgery for functional evaluation of the severity of kidney injury. Serum creatinine concentrations were then measured on a Creatinine Analyzer 2. The efficacy of RLip-EA-OH and RLip-Tau were measured against the results of vehicle-treated animals in the blinded studies. A 2-tail t-test was used to determine differences between treatments.

[3] = 3 mg/kg iv bolus 15 minutes prior to ischemia
[4] = 10 mg/kg iv bolus 15 minutes prior to ischemia

Compound	MI/AR Reduction (%) [1] [%]	other results
O=C(O)CCC(NC(=O)CCCCC1CCSS1)C(=O)NCCS(=O)(=O)O [Entry 4, N-(R)-lipoyl-L-glutamyltaurine]	33	
O=C(CCCCC1CCSS1)NC(Cc1ccc(C(=O)O)cc1)C(=O)O [Entry 6, N-(R)-lipoyl-L-4-carboxyphenylalanine]	26	
O=C(CCCCC1CCSS1)NC(CF)C(=O)O [Entry 7, N-(R)-lipoyl-fluoroalanine]	10	
O=C(CCCCC1CCSS1)NC(CS(=O)(=O)O)C(=O)O [Entry 10, N-(R)-lipoyl-L-cysteic acid]	30	Reduction in Cardiac injury ([1]; dose group 3 mg/kg): 30%; Reduction of SCr vs. control [2, 3]: 39.5%; serum creatinine concentrations relative to the control animals (in words) [2]: effectively reduced serum creatinine concentrations
O=C(CCCC[C@@H]1CCSS1)NCCS(=O)(=O)O [Entry 13, N-(R)-lipoyl-taurine]		Reduction in Cardiac injury ([1]; dose group 3 mg/kg): 50%; Reduction of SCr vs. control [2, 3]: 39.5%; serum creatinine concentrations relative to the control animals (in words) [2]: effectively reduced serum creatinine concentrations
CC(NC(=O)C(Cc1ccc(O)cc1)NC(=O)CCCCC1CCSS1)C(=O)O [Entry 3, N-(R)-lipoyl-L-tyrosinyl-L-alanine]	31	
O=C(CCCCC1CCSS1)NC(Cc1ccc(O)cc1)C(=O)O [Entry 8, N-(R)-lipoyl-L-tyrosine]	29	
O=C(CCCCC1CCSS1)NCCOP(=O)(O)O [Entry 16, N-(R)-lipoyl-aminoethyl dihydrogenphosphate]	47	
CC(NC(=O)CCCCC1CCSS1)C(=O)NC(CCC(=O)O)C(=O)O [Entry 5, N-(R)-lipoyl-L-alanyl-L-glutamic acid]	24	
O=C(CCCC[C@@H]1CCSS1)Nc1cccc(S(=O)(=O)O)c1 [Entry 18, N-(R)-lipoyl-meta-aminobenzene sulfonic acid]	33	
O=C(O)CNC(=O)C(CC(=O)O)NC(=O)CCCCC1CCSS1 [Entry 2, N-lipoyl-L-aspartylglycine]	28	
O=C(O)CCC(NC(=O)CCCCC1CCSS1)C(=O)O [Entry 9, N-(R)-lipoyl-L-glutamic acid]	33	
O=C(CCCC[C@@H]1CCSS1)Nc1ccc(C(=O)O)cc1 [Entry 17, N-(R)-lipoyl-para-aminobenzoic acid]	22	
O=C(O)CN(CC(=O)O)C(=O)CCCC[C@@H]1CCSS1 [Entry 11, N-(R)-lipoyliminodiacetic acid]	21	
O=C(CCCC[C@@H]1CCSS1)Nc1ccc(S(=O)(=O)O)cc1 [Entry 19, N-(R)-lipoyl-para-aminobenzene sulfonic acid]	44	
O=C(O)CCNC(=O)CCCC[C@@H]1CCSS1 [Entry 12, N-(R)-lipoyl-β-alanine]	39	
O=C(CCCC[C@@H]1CCSS1)NCCP(=O)(O)O [Entry 15, N-(R)-lipoyl-aminoethylphosphonic acid]	53	Reduction in Cardiac injury ([1]; dose group 1 mg/kg): 30%; Reduction in Cardiac injury ([1]; dose group 3 mg/kg): 50%; Reduction in Cardiac injury ([1]; dose group 10 mg/kg): 32%; Reduction of SCr vs. control ([2]; 1 mg/kg iv bolus 15 minutes prior to ischemia): 28.6%; Reduction of SCr vs. control [2, 3]: 28.6%; Reduction of SCr vs. control [2, 4]: 76.0%; serum creatinine concentrations relative to the control animals (in words) [2]: effectively reduced serum creatinine concentrations
CC(NC(=O)C(CCC(=O)O)NC(=O)CCCCC1CCSS1)C(=O)O [Entry 1, N-(R)-lipoyl-L-glutamyl-L-alanine]	31	Reduction in Cardiac injury ([1]; dose group 10 mg/kg): 33%; Reduction of SCr vs. control [2, 4]: 39.5%; serum creatinine concentrations relative to the control animals (in words) [2]: effectively reduced serum creatinine concentrations
O=C(CCCCC1CCSS1)NCCOS(=O)(=O)O [Entry 14, N-(R)-lipoyl-aminoethyl hydrogensulfate]	30	
